# Assay results as given in ChEMBL document CHEMBL3822358 (J Med Chem, 2016).
# pIC50: −log10 of the molar value.
# Tested on: not listed separately
# Test: animal or person
# Conditions: Homo sapiens, KARPAS-299, po, 312 h, read-out: TGI
# Description: Antitumor activity against human KARPAS299 cells expressing NMP-ALK fusion protein xenografted in SCID/beige mouse assessed as tumor growth inhibition at 10 mg/kg, po administered once daily for 13 days relative to untreated control
row,Compound,inhibition in vivo at 10 mg/kg [%]
1,COc1cc(N2CCC(O)CC2)ccc1Nc1ncc(Cl)c(Nc2ccccc2P(C)(C)=O)n1,96
2,COc1cc(N2CCC(N3CCCC3)CC2)ccc1Nc1ncc(Cl)c(Nc2ccccc2P(C)(C)=O)n1,76

# Tested on: not listed separately
# Test: Tmax in CD rat at 10 mg/kg, po by LC-MS/MS analysis
# Assay type: ADME, organism-based
# Conditions: in vivo
row,Compound,Tmax [h]
1,COc1cc(N2CCC(O)CC2)ccc1Nc1ncc(Cl)c(Nc2ccccc2P(C)(C)=O)n1,0.25
2,COc1cc(N2CCC(N3CCCC3)CC2)ccc1Nc1ncc(Cl)c(Nc2ccccc2P(C)(C)=O)n1,4
3,COc1cc(C2CCN(C)CC2)ccc1Nc1ncc(Cl)c(Nc2ccccc2P(C)(C)=O)n1,4

# Tested on: not listed separately
# Test: cells
# Conditions: Homo sapiens, KARPAS-299, 72 h
# Description: Antiproliferative activity against human ALK-positive KARPAS299 cells assessed as reduction in cell viability measured after 72 hrs by CellTiter 96 aqueous one solution cell proliferation assay
row,Compound,pIC50
1,COc1cc(N2CCC(O)CC2)ccc1Nc1ncc(Cl)c(Nc2ccccc2P(C)(C)=O)n1,7.15
2,COc1cc(N2CCC(N3CCCC3)CC2)ccc1Nc1ncc(Cl)c(Nc2ccccc2P(C)(C)=O)n1,7.68
3,COc1cc(C2CCN(C)CC2)ccc1Nc1ncc(Cl)c(Nc2ccccc2P(C)(C)=O)n1,7.72

# Molecular target: Insulin-like growth factor 1 receptor (Homo sapiens, UniProt P08069)
# Test: not given
# Conditions: not given
row,Compound,pIC50
1,COc1cc(N2CCC(O)CC2)ccc1Nc1ncc(Cl)c(Nc2ccccc2P(C)(C)=O)n1,7.57
2,COc1cc(N2CCC(N3CCCC3)CC2)ccc1Nc1ncc(Cl)c(Nc2ccccc2P(C)(C)=O)n1,7.69
3,COc1cc(C2CCN(C)CC2)ccc1Nc1ncc(Cl)c(Nc2ccccc2P(C)(C)=O)n1,8.09

# Molecular target: T1, ALK tyrosine kinase receptor (Homo sapiens, UniProt Q9UM73)
# Test: Inhibition of ALK phosphorylation in mouse xenografted with human KARPAS299 cells assessed as p-ALK level at 25 mg/kg, po administered as single dose measured after 16 hrs relative to 2 hrs vehicle-treated tumor
# Assay type: organism-based
# Parameters: scale not given: the % may be the effect or the level left
# Conditions: KARPAS-299
# Target sequence in this assay (Q9UM73 19-1620 limits assumed): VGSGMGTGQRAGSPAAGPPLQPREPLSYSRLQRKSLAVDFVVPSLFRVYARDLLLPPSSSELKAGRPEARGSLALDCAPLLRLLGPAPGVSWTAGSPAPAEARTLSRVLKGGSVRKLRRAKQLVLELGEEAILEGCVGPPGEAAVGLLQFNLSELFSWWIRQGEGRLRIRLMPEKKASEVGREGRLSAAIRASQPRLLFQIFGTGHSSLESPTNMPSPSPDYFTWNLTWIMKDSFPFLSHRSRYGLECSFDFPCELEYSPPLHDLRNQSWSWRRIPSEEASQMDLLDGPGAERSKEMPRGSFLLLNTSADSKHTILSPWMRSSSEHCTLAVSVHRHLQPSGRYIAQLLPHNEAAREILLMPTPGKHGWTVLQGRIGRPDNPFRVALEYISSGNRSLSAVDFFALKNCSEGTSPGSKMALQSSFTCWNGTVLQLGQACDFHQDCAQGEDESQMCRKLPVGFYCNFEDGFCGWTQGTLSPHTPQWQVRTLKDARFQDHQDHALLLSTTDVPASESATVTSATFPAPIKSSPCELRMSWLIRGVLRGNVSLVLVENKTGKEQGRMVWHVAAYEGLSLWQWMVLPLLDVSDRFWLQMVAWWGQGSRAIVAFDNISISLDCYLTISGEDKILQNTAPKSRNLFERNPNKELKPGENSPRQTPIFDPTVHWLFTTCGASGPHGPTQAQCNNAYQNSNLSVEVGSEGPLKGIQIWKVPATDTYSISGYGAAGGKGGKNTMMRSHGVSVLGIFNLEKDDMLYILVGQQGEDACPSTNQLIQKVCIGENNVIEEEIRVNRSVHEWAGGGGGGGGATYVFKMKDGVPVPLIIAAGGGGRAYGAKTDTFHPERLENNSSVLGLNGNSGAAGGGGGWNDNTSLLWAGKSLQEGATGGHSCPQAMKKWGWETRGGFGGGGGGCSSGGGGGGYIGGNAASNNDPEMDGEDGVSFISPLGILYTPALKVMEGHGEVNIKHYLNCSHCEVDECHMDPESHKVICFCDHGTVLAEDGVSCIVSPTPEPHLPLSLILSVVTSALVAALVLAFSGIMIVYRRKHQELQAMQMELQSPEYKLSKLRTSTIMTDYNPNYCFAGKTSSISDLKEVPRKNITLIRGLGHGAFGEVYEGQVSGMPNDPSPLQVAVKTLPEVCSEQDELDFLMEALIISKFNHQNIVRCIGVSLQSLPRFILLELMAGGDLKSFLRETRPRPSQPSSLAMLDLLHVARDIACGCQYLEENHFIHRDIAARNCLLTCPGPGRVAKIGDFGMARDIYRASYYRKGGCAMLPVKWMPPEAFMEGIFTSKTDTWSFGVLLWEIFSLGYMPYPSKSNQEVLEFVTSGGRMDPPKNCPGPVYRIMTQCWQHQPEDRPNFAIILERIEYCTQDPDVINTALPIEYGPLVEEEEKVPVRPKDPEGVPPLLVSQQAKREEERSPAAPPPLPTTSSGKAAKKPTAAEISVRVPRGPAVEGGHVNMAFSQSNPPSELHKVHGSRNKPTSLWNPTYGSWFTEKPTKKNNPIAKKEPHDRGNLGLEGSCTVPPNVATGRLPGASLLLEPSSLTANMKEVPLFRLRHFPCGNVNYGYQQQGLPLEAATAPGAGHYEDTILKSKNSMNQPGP
row,Compound,Activity [%]
1,COc1cc(N2CCC(O)CC2)ccc1Nc1ncc(Cl)c(Nc2ccccc2P(C)(C)=O)n1,25
2,COc1cc(N2CCC(N3CCCC3)CC2)ccc1Nc1ncc(Cl)c(Nc2ccccc2P(C)(C)=O)n1,39
3,COc1cc(C2CCN(C)CC2)ccc1Nc1ncc(Cl)c(Nc2ccccc2P(C)(C)=O)n1,69

# Molecular target: T1, ALK tyrosine kinase receptor
# Test: Inhibition of ALK phosphorylation in mouse xenografted with human KARPAS299 cells assessed as p-ALK level at 25 mg/kg, po administered as single dose measured after 8 hrs relative to 2 hrs vehicle-treated tumor
# Assay type: organism-based
# Parameters: scale not given: the % may be the effect or the level left
# Conditions: KARPAS-299
# Target sequence in this assay (Q9UM73 19-1620 limits assumed): as above
row,Compound,Activity [%]
1,COc1cc(N2CCC(O)CC2)ccc1Nc1ncc(Cl)c(Nc2ccccc2P(C)(C)=O)n1,41

# Molecular target: T1, ALK tyrosine kinase receptor
# Test: Inhibition of ALK phosphorylation in mouse xenografted with human KARPAS299 cells assessed as p-ALK level at 25 mg/kg, po administered as single dose measured after 24 hrs relative to 2 hrs vehicle-treated tumor
# Assay type: organism-based
# Parameters: scale not given: the % may be the effect or the level left
# Conditions: KARPAS-299
# Target sequence in this assay (Q9UM73 19-1620 limits assumed): as above
row,Compound,Activity [%]
1,COc1cc(N2CCC(O)CC2)ccc1Nc1ncc(Cl)c(Nc2ccccc2P(C)(C)=O)n1,168
2,COc1cc(N2CCC(N3CCCC3)CC2)ccc1Nc1ncc(Cl)c(Nc2ccccc2P(C)(C)=O)n1,51
3,COc1cc(C2CCN(C)CC2)ccc1Nc1ncc(Cl)c(Nc2ccccc2P(C)(C)=O)n1,118

# Tested on: not listed separately
# Test: Cmax in CD rat at 10 mg/kg, po by LC-MS/MS analysis
# Assay type: ADME, organism-based
# Parameters: dose 10 mg/kg, route oral
# Conditions: in vivo
row,Compound,Cmax [ng/mL]
1,COc1cc(N2CCC(O)CC2)ccc1Nc1ncc(Cl)c(Nc2ccccc2P(C)(C)=O)n1,772
2,COc1cc(N2CCC(N3CCCC3)CC2)ccc1Nc1ncc(Cl)c(Nc2ccccc2P(C)(C)=O)n1,109
3,COc1cc(C2CCN(C)CC2)ccc1Nc1ncc(Cl)c(Nc2ccccc2P(C)(C)=O)n1,601

# Tested on: not listed separately
# Test: AUC (0 to 24 hrs) in mouse at 10 mg/kg, po by LC-MS/MS analysis
# Assay type: ADME, organism-based
# Parameters: time < 24 hr, dose 10 mg/kg, route oral
# Conditions: in vivo
row,Compound,AUC(0-t) at 24 h [ng·h/mL]
1,COc1cc(N2CCC(O)CC2)ccc1Nc1ncc(Cl)c(Nc2ccccc2P(C)(C)=O)n1,13300
2,COc1cc(N2CCC(N3CCCC3)CC2)ccc1Nc1ncc(Cl)c(Nc2ccccc2P(C)(C)=O)n1,3230
3,COc1cc(C2CCN(C)CC2)ccc1Nc1ncc(Cl)c(Nc2ccccc2P(C)(C)=O)n1,3450

# Tested on: not listed separately
# Test: animal or person
# Conditions: Homo sapiens, KARPAS-299, po, 312 h, read-out: TGI
# Remark: another data set of the same source
# Description: Antitumor activity against human KARPAS299 cells expressing NMP-ALK fusion protein xenografted in SCID/beige mouse assessed as tumor growth inhibition at 50 mg/kg, po administered once daily for 13 days relative to untreated control
row,Compound,inhibition in vivo at 50 mg/kg [%]
1,COc1cc(N2CCC(O)CC2)ccc1Nc1ncc(Cl)c(Nc2ccccc2P(C)(C)=O)n1,67
2,COc1cc(N2CCC(N3CCCC3)CC2)ccc1Nc1ncc(Cl)c(Nc2ccccc2P(C)(C)=O)n1,26

# Tested on: not listed separately
# Test: Volume of distribution at steady state in CD rat at 3 mg/kg, iv by LC-MS/MS analysis
# Assay type: ADME, organism-based
# Conditions: CD, in vivo, read-out: Vdss
row,Compound,Vd [L/kg]
1,COc1cc(N2CCC(O)CC2)ccc1Nc1ncc(Cl)c(Nc2ccccc2P(C)(C)=O)n1,2.74
2,COc1cc(N2CCC(N3CCCC3)CC2)ccc1Nc1ncc(Cl)c(Nc2ccccc2P(C)(C)=O)n1,6.61
3,COc1cc(C2CCN(C)CC2)ccc1Nc1ncc(Cl)c(Nc2ccccc2P(C)(C)=O)n1,8.55

# Tested on: not listed separately
# Test: Clearance in CD rat at 3 mg/kg, iv by LC-MS/MS analysis
# Assay type: ADME, organism-based
# Conditions: in vivo
row,Compound,clearance [mL/min/kg]
1,COc1cc(N2CCC(O)CC2)ccc1Nc1ncc(Cl)c(Nc2ccccc2P(C)(C)=O)n1,10.7
2,COc1cc(N2CCC(N3CCCC3)CC2)ccc1Nc1ncc(Cl)c(Nc2ccccc2P(C)(C)=O)n1,22.7
3,COc1cc(C2CCN(C)CC2)ccc1Nc1ncc(Cl)c(Nc2ccccc2P(C)(C)=O)n1,31.8

# Tested on: not listed separately
# Test: Half life in CD rat at 10 mg/kg, po by LC-MS/MS analysis
# Assay type: ADME, organism-based
# Conditions: in vivo
row,Compound,half-life [h]
1,COc1cc(N2CCC(O)CC2)ccc1Nc1ncc(Cl)c(Nc2ccccc2P(C)(C)=O)n1,2.7
2,COc1cc(N2CCC(N3CCCC3)CC2)ccc1Nc1ncc(Cl)c(Nc2ccccc2P(C)(C)=O)n1,3.7
3,COc1cc(C2CCN(C)CC2)ccc1Nc1ncc(Cl)c(Nc2ccccc2P(C)(C)=O)n1,2.5

# Tested on: not listed separately
# Test: AUC (0 to infinity) in CD rat at 10 mg/kg, po by LC-MS/MS analysis
# Assay type: ADME, organism-based
# Parameters: dose 10 mg/kg, route oral, time infinity
# Conditions: in vivo
row,Compound,AUC(0-inf) [ng·h/mL]
1,COc1cc(N2CCC(O)CC2)ccc1Nc1ncc(Cl)c(Nc2ccccc2P(C)(C)=O)n1,9720
2,COc1cc(N2CCC(N3CCCC3)CC2)ccc1Nc1ncc(Cl)c(Nc2ccccc2P(C)(C)=O)n1,1350
3,COc1cc(C2CCN(C)CC2)ccc1Nc1ncc(Cl)c(Nc2ccccc2P(C)(C)=O)n1,5670

# Molecular target: T1, ALK tyrosine kinase receptor
# Test: Inhibition of ALK phosphorylation in mouse xenografted with human KARPAS299 cells assessed as p-ALK level at 25 mg/kg, po administered as single dose measured after 10 hrs relative to 2 hrs vehicle-treated tumor
# Assay type: organism-based
# Parameters: scale not given: the % may be the effect or the level left
# Conditions: KARPAS-299
# Target sequence in this assay (Q9UM73 19-1620 limits assumed): as above
row,Compound,Activity [%]
1,COc1cc(N2CCC(N3CCCC3)CC2)ccc1Nc1ncc(Cl)c(Nc2ccccc2P(C)(C)=O)n1,2
2,COc1cc(C2CCN(C)CC2)ccc1Nc1ncc(Cl)c(Nc2ccccc2P(C)(C)=O)n1,1

# Tested on: not listed separately
# Test: animal or person
# Conditions: Homo sapiens, KARPAS-299, po, 312 h, read-out: TGI
# Remark: another data set of the same source
# Description: Antitumor activity against human KARPAS299 cells expressing NMP-ALK fusion protein xenografted in SCID/beige mouse assessed as tumor growth inhibition at 25 mg/kg, po administered once daily for 13 days relative to untreated control
row,Compound,inhibition in vivo at 25 mg/kg [%]
1,COc1cc(N2CCC(O)CC2)ccc1Nc1ncc(Cl)c(Nc2ccccc2P(C)(C)=O)n1,85
2,COc1cc(N2CCC(N3CCCC3)CC2)ccc1Nc1ncc(Cl)c(Nc2ccccc2P(C)(C)=O)n1,52

# Tested on: not listed separately
# Test: cells
# Conditions: Homo sapiens, U-937, 72 h
# Description: Antiproliferative activity against human ALK-negative U937 cells assessed as reduction in cell viability measured after 72 hrs by CellTiter 96 aqueous one solution cell proliferation assay
row,Compound,pIC50
1,COc1cc(N2CCC(O)CC2)ccc1Nc1ncc(Cl)c(Nc2ccccc2P(C)(C)=O)n1,5.14
2,COc1cc(N2CCC(N3CCCC3)CC2)ccc1Nc1ncc(Cl)c(Nc2ccccc2P(C)(C)=O)n1,5.78
3,COc1cc(C2CCN(C)CC2)ccc1Nc1ncc(Cl)c(Nc2ccccc2P(C)(C)=O)n1,5.45

# Tested on: not listed separately
# Test: Half life in CD rat at 3 mg/kg, iv by LC-MS/MS analysis
# Assay type: ADME, organism-based
# Conditions: CD, in vivo
row,Compound,half-life [h]
1,COc1cc(N2CCC(O)CC2)ccc1Nc1ncc(Cl)c(Nc2ccccc2P(C)(C)=O)n1,5.6
2,COc1cc(N2CCC(N3CCCC3)CC2)ccc1Nc1ncc(Cl)c(Nc2ccccc2P(C)(C)=O)n1,4.7
3,COc1cc(C2CCN(C)CC2)ccc1Nc1ncc(Cl)c(Nc2ccccc2P(C)(C)=O)n1,4

# Tested on: not listed separately
# Test: Cmax in mouse at 10 mg/kg, po by LC-MS/MS analysis
# Assay type: ADME, organism-based
# Parameters: dose 10 mg/kg, route oral
# Conditions: in vivo
row,Compound,Cmax [ng/mL]
1,COc1cc(N2CCC(O)CC2)ccc1Nc1ncc(Cl)c(Nc2ccccc2P(C)(C)=O)n1,2940
2,COc1cc(N2CCC(N3CCCC3)CC2)ccc1Nc1ncc(Cl)c(Nc2ccccc2P(C)(C)=O)n1,411
3,COc1cc(C2CCN(C)CC2)ccc1Nc1ncc(Cl)c(Nc2ccccc2P(C)(C)=O)n1,421

# Tested on: not listed separately
# Test: AUC (0 to infinity) in CD rat at 3 mg/kg, iv by LC-MS/MS analysis
# Assay type: ADME, organism-based
# Parameters: dose 3 mg/kg, time infinity, route intravenous
# Conditions: CD, in vivo
row,Compound,AUC(0-inf) [ng·h/mL]
1,COc1cc(N2CCC(O)CC2)ccc1Nc1ncc(Cl)c(Nc2ccccc2P(C)(C)=O)n1,4550
2,COc1cc(N2CCC(N3CCCC3)CC2)ccc1Nc1ncc(Cl)c(Nc2ccccc2P(C)(C)=O)n1,2170
3,COc1cc(C2CCN(C)CC2)ccc1Nc1ncc(Cl)c(Nc2ccccc2P(C)(C)=O)n1,1550

# Molecular target: T1, ALK tyrosine kinase receptor
# Test: not given
# Conditions: not given
# Target sequence in this assay (Q9UM73 whole entry): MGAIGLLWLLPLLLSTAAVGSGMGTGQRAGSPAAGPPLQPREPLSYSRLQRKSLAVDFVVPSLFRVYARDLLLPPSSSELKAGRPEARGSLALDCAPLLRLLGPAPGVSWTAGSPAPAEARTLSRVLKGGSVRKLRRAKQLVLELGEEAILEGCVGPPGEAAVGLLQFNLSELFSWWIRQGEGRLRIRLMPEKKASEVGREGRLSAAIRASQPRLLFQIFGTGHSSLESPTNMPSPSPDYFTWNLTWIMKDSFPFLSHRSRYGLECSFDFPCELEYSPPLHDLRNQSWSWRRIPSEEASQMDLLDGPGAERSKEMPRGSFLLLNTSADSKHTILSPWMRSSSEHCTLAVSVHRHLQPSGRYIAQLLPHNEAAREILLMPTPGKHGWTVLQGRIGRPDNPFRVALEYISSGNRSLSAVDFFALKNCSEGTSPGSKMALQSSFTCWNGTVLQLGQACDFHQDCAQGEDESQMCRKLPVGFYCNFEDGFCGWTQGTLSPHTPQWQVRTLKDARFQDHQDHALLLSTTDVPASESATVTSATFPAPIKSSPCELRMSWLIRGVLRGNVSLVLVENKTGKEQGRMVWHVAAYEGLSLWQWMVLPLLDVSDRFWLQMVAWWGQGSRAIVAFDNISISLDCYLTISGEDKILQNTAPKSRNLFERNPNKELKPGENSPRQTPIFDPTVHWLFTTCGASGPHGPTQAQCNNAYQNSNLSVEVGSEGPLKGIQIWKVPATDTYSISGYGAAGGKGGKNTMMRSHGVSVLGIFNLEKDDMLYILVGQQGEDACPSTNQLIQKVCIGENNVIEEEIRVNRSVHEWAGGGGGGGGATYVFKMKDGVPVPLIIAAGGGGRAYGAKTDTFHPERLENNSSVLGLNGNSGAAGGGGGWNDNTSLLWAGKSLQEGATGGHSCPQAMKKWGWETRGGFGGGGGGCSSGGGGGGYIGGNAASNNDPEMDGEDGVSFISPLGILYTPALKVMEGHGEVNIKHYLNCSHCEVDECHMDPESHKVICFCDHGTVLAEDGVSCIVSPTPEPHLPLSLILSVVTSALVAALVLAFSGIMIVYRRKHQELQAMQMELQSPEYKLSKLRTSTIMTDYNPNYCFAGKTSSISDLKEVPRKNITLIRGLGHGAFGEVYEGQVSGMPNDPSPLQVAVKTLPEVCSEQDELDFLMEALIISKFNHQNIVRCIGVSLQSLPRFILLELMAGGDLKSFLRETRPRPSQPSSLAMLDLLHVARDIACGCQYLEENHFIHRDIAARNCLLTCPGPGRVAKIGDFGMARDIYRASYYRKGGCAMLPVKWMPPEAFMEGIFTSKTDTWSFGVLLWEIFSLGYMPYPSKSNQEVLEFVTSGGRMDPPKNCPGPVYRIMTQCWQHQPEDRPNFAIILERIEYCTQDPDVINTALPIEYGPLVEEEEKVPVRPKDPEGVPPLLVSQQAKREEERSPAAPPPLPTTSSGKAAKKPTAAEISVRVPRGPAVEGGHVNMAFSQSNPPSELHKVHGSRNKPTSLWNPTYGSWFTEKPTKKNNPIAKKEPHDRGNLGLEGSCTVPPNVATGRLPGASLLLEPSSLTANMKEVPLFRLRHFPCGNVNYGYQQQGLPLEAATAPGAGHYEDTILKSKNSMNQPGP
row,Compound,pIC50
1,COc1cc(N2CCC(O)CC2)ccc1Nc1ncc(Cl)c(Nc2ccccc2P(C)(C)=O)n1,9.44
2,COc1cc(N2CCC(N3CCCC3)CC2)ccc1Nc1ncc(Cl)c(Nc2ccccc2P(C)(C)=O)n1,9.28
3,COc1cc(C2CCN(C)CC2)ccc1Nc1ncc(Cl)c(Nc2ccccc2P(C)(C)=O)n1,9.42

# Tested on: not listed separately
# Test: Oral bioavailability in CD rat at 10 mg/kg by LC-MS/MS analysis
# Assay type: ADME, organism-based
# Conditions: in vivo
row,Compound,bioavailability [%]
1,COc1cc(N2CCC(O)CC2)ccc1Nc1ncc(Cl)c(Nc2ccccc2P(C)(C)=O)n1,64
2,COc1cc(N2CCC(N3CCCC3)CC2)ccc1Nc1ncc(Cl)c(Nc2ccccc2P(C)(C)=O)n1,19
3,COc1cc(C2CCN(C)CC2)ccc1Nc1ncc(Cl)c(Nc2ccccc2P(C)(C)=O)n1,110

# Molecular target: Insulin receptor (Homo sapiens, UniProt P06213)
# Sequence (P06213 28-758 limits assumed): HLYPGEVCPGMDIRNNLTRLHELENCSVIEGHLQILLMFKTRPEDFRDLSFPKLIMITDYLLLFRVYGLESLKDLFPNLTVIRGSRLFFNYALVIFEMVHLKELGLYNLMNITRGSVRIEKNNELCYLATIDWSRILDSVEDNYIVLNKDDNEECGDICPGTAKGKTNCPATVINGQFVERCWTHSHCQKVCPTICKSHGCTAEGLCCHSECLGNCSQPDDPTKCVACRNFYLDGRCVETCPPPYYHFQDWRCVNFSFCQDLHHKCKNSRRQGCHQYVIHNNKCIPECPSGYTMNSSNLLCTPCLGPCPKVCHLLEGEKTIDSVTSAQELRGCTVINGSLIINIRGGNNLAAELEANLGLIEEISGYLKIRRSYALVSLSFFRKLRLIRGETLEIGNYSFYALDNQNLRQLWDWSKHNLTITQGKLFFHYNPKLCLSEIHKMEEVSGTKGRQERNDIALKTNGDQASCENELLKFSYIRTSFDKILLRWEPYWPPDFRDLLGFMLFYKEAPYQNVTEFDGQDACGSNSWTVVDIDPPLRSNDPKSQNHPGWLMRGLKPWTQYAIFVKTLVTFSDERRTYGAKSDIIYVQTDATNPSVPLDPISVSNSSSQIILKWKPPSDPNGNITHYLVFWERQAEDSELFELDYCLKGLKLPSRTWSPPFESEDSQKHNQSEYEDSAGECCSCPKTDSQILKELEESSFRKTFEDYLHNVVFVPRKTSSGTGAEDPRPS
# Sequence (P06213 763-1382 limits assumed): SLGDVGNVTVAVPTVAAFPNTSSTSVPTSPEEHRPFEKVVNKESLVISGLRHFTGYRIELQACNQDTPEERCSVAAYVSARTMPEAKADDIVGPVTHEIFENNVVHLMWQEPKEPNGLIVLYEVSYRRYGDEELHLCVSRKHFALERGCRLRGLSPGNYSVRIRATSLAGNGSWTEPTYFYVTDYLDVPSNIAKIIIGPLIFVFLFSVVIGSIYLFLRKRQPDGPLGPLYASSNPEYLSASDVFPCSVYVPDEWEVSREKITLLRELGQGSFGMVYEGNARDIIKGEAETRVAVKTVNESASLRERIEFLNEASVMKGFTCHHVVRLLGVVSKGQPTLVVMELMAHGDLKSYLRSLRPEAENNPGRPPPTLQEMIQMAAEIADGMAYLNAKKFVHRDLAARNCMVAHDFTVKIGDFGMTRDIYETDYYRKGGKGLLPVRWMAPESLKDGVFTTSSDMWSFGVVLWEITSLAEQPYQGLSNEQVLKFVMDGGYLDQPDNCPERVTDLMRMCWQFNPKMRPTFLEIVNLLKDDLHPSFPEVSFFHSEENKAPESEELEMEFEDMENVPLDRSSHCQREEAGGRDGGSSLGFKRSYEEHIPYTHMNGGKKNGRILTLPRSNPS
# Test: not given
# Conditions: not given
row,Compound,pIC50
1,COc1cc(N2CCC(O)CC2)ccc1Nc1ncc(Cl)c(Nc2ccccc2P(C)(C)=O)n1,6.77
2,COc1cc(N2CCC(N3CCCC3)CC2)ccc1Nc1ncc(Cl)c(Nc2ccccc2P(C)(C)=O)n1,7.07
3,COc1cc(C2CCN(C)CC2)ccc1Nc1ncc(Cl)c(Nc2ccccc2P(C)(C)=O)n1,7.24

# Tested on: not listed separately
# Test: Half life in mouse at 10 mg/kg, po by LC-MS/MS analysis
# Assay type: ADME, organism-based
# Conditions: in vivo
row,Compound,half-life [h]
1,COc1cc(N2CCC(O)CC2)ccc1Nc1ncc(Cl)c(Nc2ccccc2P(C)(C)=O)n1,2.2
2,COc1cc(N2CCC(N3CCCC3)CC2)ccc1Nc1ncc(Cl)c(Nc2ccccc2P(C)(C)=O)n1,3.1
3,COc1cc(C2CCN(C)CC2)ccc1Nc1ncc(Cl)c(Nc2ccccc2P(C)(C)=O)n1,5
